In US20230391727A1, “ANALOGUES OF PENTAMIDINE AND METHODS FOR TREATING INFECTIONS” (Auransa Inc., priority 2020, published 2023):
≈ marks a conversion by molar mass, not a printed value.

Key:
A. baumannii ATCC 17978 = assay: Checkerboard assay with novobiocin (FIGS. 2, 3, 5, 6); format: cell-based, Acinetobacter baumannii; conditions: for MIC: Acinetobacter baumannii, ATCC17978, substance alone
Text: Novobiocin is an anti-staphylococcal drug, but with limited use. The oral form of novobiocin drug has since been withdrawn from the market due to lack of efficacy. This antibiotic is often used to treat Staphylococcus aureus infection, particularly methicillin resistant S. aureus “MRSA”.

NCI H69 cells = assay: CellTiter-Glo cell viability assay (cytotoxicity), 8 days; format: cell-based; conditions: Homo sapiens, 192 h, full growth media
Protocol: The experiment tested pentamidine, Compounds 1-6 in full growth media for 8 days. NCI H69 cells were initially treated with the test compounds on Day 0, and the cells were then replenished with fresh compound dilutions on Day 3. Pentamidine and Compound 1 were tested at 9 concentration points: 100 μM, 33.33 μM, 11.11 μM, 3.70 μM, 1.23 μM, […], 0.05 μM, and 0.02 μM (final DMSO concentration=0.5%). The raw data values from the CellTiter-Glo™ cell viability assay expressed in relative luminescence units were normalized to the vehicle for each individual plate, and any reduction in luminescence indicated a decrease in viability (%). The data was analyzed in GraphPad PRISM using a non-linear sigmoidal plot with variable slope (asymmetric four-point […]), and an IC50 value for each compound was generated based on the normalized dose-response curves and shown in Table 1.

S. aureus ATCC 27660 = assay: MIC assay against gram positive S. aureus; format: cell-based; conditions: Staphylococcus aureus, ATCC27660
Protocol: (§1) Then the compound stocks were serially 2-fold diluted in a v-bottom 96-well plate to make 100-fold working solutions. One day before the test, −80° C. glycerol stock of S. aureus strains were streaked on cation-adjusted Mueller-Hinton agar (CAMHA) plates. On the day of test, fresh bacterial colonies were suspended into sterile saline to an OD600 nm of ˜0.1 (equivalent to 0.5 McFarland). The bacterial suspension was firstly 20-fold followed by 50-fold diluted in cation-adjusted Mueller-Hinton broth (CAMHB) plates to 1×10^6 CFU/PO. 198 ul of the inoculum was added into the round-bottom 96-well plates prefilled with 2 ul of 100-fold compound working solutions. After incubating at 35 +/−2° C. in ambient atmosphere for 18-24 h, MIC was recorded as the lowest concentration under which no visible bacterial growth was observed.

S. aureus ATCC 43300 = assay: MIC assay against gram positive S. aureus; format: cell-based; conditions: Staphylococcus aureus, ATCC43300
Protocol: as §1

[1] = system: A. baumannii (ATCC 17978); assay: Checkerboard/MIC assay with rifampicin; format: cell-based; conditions: ATCC17978; substance alone; Acinetobacter baumannii ATCC 17978
Text: (§2) The 17 test strains/isolates were: (1) Serratia marcescens (ATCC 13880); (2) Salmonella typhimurium (ATCC 13311); (3) Salmonella choleraesuis (ATCC 10708); (4) Acinetobacter baumannii (ATCC BAA-1605); (5) A. baumannii (ATCC 17978); (6) A. baumannii (FDA-CDC AR-BANK#0088); (7) Citrobacter freundii (ATCC 8090); (8) Pseudomonas aeruginosa (BCCM 27647); (9) P. aeruginosa (BCCM 27648); (10) Escherichia coli (ATCC 25922); (11) E. coli (ATCC 10536); (12) Stenotrophomonas maltophilia (ATCC 13637); (13) Enterobacter cloacae (ATCC BAA-1143); (14) E. cloacae (ATCC 13047); (15) E. aerogenes (ATCC 13048); (16) Klebsiella pneumoniae (NCTC 13438); and (17) Klebsiella pneumoniae (FDA-CDC AR-BANK#0160). These bacterial strains were obtained from the American Type Culture Collection (ATCC, Rockville, MD, USA); Belgian Coordinated Collections of Microorganisms; The Culture Collections of Public Health England, UK; and FDA-CDC anticimrobial Resistance Isolate Bank, USA, and cryopreserved as single-use frozen working stock cultures which were stored at −80° C.
(§3) The 17 test strains were grown on nutrient agar or tryptic soy agar (TSA) medium as below. Colonies were suspended in phosphate buffered saline (PBS) pH 7.4. The absorbance of the bacterial suspension was measured with a spectrophotometer at OD620nm, and then the suspension was adjusted to 1-2×10^8 CFU/mL in PBS. The adjusted suspension was further diluted 1:500 in cation-adjusted Mueller-Hinton Broth. Each well contained approximately 5×10^5 CFU/mL. […] The testing inoculum was prepared within minutes before adding to wells of the test plate.
(§4) Compound 3 was tested in 8 points by two-fold serial titrations from 100 to 0.78 μg/mL. […] Assay plates were incubated and MIC endpoints were read as complete inhibition of visual growth. The checkerboard combination analysis was performed following the MIC testing protocol to identify potential synergistic, indifferent or antagonistic interactions. The analysis also included each test substance alone at the same concentration ranges.
(§5) FIC (Fraction Inhibitory Concentration) and FIC Index (FICI) values for each test condition and the average of FICI values of all pairwise combinations were calculated to determine if synergy or antagonism existed between the two substances. The FIC index was determined by calculating the sum of the ratios of MICs (minimum inhibitory concentrations) for both substances. […] Synergy is defined as the FICI (Σ)≤0.5; additivity or indifference are defined as the FICI (Σ)>0.5 to ≤4; antagonism is defined as the FICI (Σ)>4. The two fold of highest test article concentration was used for FIC value calculations in the circumstances where MIC values were greater than the highest test article concentration.

[2] = system: A. baumannii (FDA-CDC AR-BANK#0088); assay: Checkerboard/MIC assay with rifampicin; format: cell-based; conditions: substance alone; Acinetobacter baumannii AR-BANK 0088
Text: as §2, §3, §4, §5

[3] = system: Acinetobacter baumannii (ATCC BAA-1605); assay: Checkerboard/MIC assay with rifampicin; format: cell-based; conditions: substance alone; Acinetobacter baumannii BAA-1605
Text: as §2, §3, §4, §5

[4] = system: Citrobacter freundii (ATCC 8090); assay: Checkerboard/MIC assay with rifampicin; format: cell-based; conditions: ATCC8090, substance alone
Text: as §2, §3, §4, §5

[5] = system: E. aerogenes (ATCC 13048); assay: Checkerboard/MIC assay with rifampicin; format: cell-based; conditions: Klebsiella aerogenes, ATCC13048; substance alone; Enterobacter aerogenes ATCC-13048
Text: as §2, §3, §4, §5

E. cloacae (ATCC 13047) = assay: Checkerboard/MIC assay with rifampicin; format: cell-based; conditions: ATCC13047; substance alone; Enterobacter cloacae ATCC-13047
Text: as §2, §3, §4, §5

E. coli (ATCC 10536) = assay: Checkerboard/MIC assay with rifampicin; format: cell-based; conditions: ATCC10536; substance alone; Escherichia coli ATCC 10536
Text: as §2, §3, §4, §5

[6] = system: Enterobacter cloacae (ATCC BAA-1143); assay: Checkerboard/MIC assay with rifampicin; format: cell-based; conditions: substance alone; Enterobacter cloacae BAA-1143
Text: as §2, §3, §4, §5

[7] = system: Escherichia coli (ATCC 25922); assay: Checkerboard/MIC assay with rifampicin; format: cell-based; conditions: ATCC25922, substance alone
Text: as §2, §3, §4, §5

[8] = system: Klebsiella pneumoniae (FDA-CDC AR-BANK#0160); assay: Checkerboard/MIC assay with rifampicin; format: cell-based; conditions: substance alone; Klebsiella pneumoniae AR-BANK#0160
Text: as §2, §3, §4, §5

[9] = system: Klebsiella pneumoniae (NCTC 13438); assay: Checkerboard/MIC assay with rifampicin; format: cell-based; conditions: NCTC13438, substance alone
Text: as §2, §3, §4, §5

[10] = system: P. aeruginosa (BCCM 27648); assay: Checkerboard/MIC assay with rifampicin; format: cell-based; conditions: substance alone; Pseudomonas aeruginosa BCCM27648
Text: as §2, §3, §4, §5

[11] = system: Pseudomonas aeruginosa (BCCM 27647); assay: Checkerboard/MIC assay with rifampicin; format: cell-based; conditions: substance alone; Pseudomonas aeruginosa BCCM27647
Text: as §2, §3, §4, §5

[12] = system: Salmonella choleraesuis (ATCC 10708); assay: Checkerboard/MIC assay with rifampicin; format: cell-based; conditions: Salmonella enterica
Text: as §2, §3, §4, §5

[13] = system: Salmonella typhimurium (ATCC 13311); assay: Checkerboard/MIC assay with rifampicin; format: cell-based; conditions: Salmonella enterica; substance alone; Salmonella typhimurium ATCC13311
Text: as §2, §3, §4, §5

[14] = system: Serratia marcescens (ATCC 13880); assay: Checkerboard/MIC assay with rifampicin; format: cell-based; conditions: ATCC13880, substance alone
Text: as §2, §3, §4, §5

[15] = system: Stenotrophomonas maltophilia (ATCC 13637); assay: Checkerboard/MIC assay with rifampicin; format: cell-based; conditions: ATCC13637, substance alone
Text: as §2, §3, §4, §5

With `CO[C@@H]1[C@@H](OC(N)=O)[C@@H](O)[C@H](Oc2ccc3c(O)c(NC(=O)c4ccc(O)c(CC=C(C)C)c4)c(=O)oc3c2C)OC1(C)C` [novobiocin, reference compound] the MIC (A. baumannii ATCC 17978) was greater than 18.9 µM and the “MIC of novobiocin when FICI is calculated” value (A. baumannii ATCC 17978; value used for FICI calculation) was 37.8 µM.

In the case of `N=C(N)c1ccc(CCCCCCCc2ccc(C3CCNC3)cc2)cc1` (stereo not drawn) [Compound 8, 4-(7-(4-(pyrrolidine-3-yl)phenyl)heptyl)benzimidamide], the IC50 (NCI H69 cells) is reported as 1.92 µM, the “synergy with novobiocin as compared to pentamidine with novobiocin” value (A. baumannii ATCC 17978) is reported as “increased synergy” and the MIC (A. baumannii ATCC 17978) is reported as greater than 34.4 µM.

With `Nc1nccc2ccc(CCCCCCCc3ccc4ccnc(N)c4c3)cc12` [Compound 7, 7,7′-(heptane-1,7-diyl)bis(isoquinolin-1-amine)] the IC50 (NCI H69 cells) was 1.15 µM, the “synergistic effect with novobiocin” value (A. baumannii ATCC 17978) was “no synergistic effect” and the MIC (A. baumannii ATCC 17978) was 8.13 µM.

With `N=C(N)c1cccc(CCCCCCCc2cccc(C(=N)N)c2)c1` [Compound 1, 3,3′-(heptane-1,7-diyl)dibenzimidamide] the IC50 (NCI H69 cells) was 0.31 µM, the “synergistic effect with novobiocin” value (A. baumannii ATCC 17978) was “clear synergistic effects” and the “synergy with novobiocin as compared to pentamidine with novobiocin” value (A. baumannii ATCC 17978) was “superior synergy”. For the same compound, the MIC (A. baumannii ATCC 17978) was 149 µM.

`N=C(N)c1ccc(OCCCCCOc2ccc(C(=N)N)cc2)cc1` [Pentamidine, 1,5-bis(4-amidinophenoxy)pentane] was tested, and the MIC (S. aureus ATCC 27660) was 16 µg/mL (≈ 47 µM) and the MIC (S. aureus ATCC 43300) was 64 µg/mL (≈ 188 µM).

In the case of `CO[C@H]1/C=C/O[C@@]2(C)Oc3c(C)c(O)c4c(O)c(c(/C=N/N5CCN(C)CC5)c(O)c4c3C2=O)NC(=O)/C(C)=C\C=C\[C@H](C)[C@H](O)[C@@H](C)[C@@H](O)[C@@H](C)[C@H](OC(C)=O)[C@@H]1C` [Rifampicin, reference compound], the MIC [1] is reported as 6.25 µg/mL, the MIC [2] is reported as 3.12 µg/mL and the MIC [3] is reported as 3.12 µg/mL. For the same compound, the MIC [4] was greater than 12.5 µg/mL, the MIC [5] was greater than 12.5 µg/mL and the MIC (E. cloacae (ATCC 13047)) was greater than 12.5 µg/mL. It also gave an MIC (E. coli (ATCC 10536)) of 3.12 µg/mL, an MIC [6] greater than 12.5 µg/mL and an MIC [7] of 6.25 µg/mL. For the same compound, the MIC [8] was greater than 12.5 µg/mL, the MIC [9] was greater than 12.5 µg/mL and the MIC [10] was greater than 12.5 µg/mL. The MIC [11] was greater than 12.5 µg/mL, the MIC [12] was 12.5 µg/mL and the MIC [13] was greater than 12.5 µg/mL. The MIC [14] was greater than 12.5 µg/mL and the MIC [15] was 6.25 µg/mL.

`N=C(N)c1cccc(CC[C@H]2CCC[C@@H](CCc3cccc(C(=N)N)c3)C2)c1` [Compound 6, 3,3′-(((1R,3S)-cyclohexane-1,3-diyl)bis(ethane-2,1-diyl))dibenzimidamide] was tested, and the IC50 (NCI H69 cells) was 0.33 µM.

`N=C(N)c1ccc(CC[C@@H]2CCC[C@H](CCc3ccc(C4CCNC4)cc3)C2)cc1` (stereo partly drawn) [Compound 5, 4-(2-((1S,3R)-3-(4-(pyrrolidin-3-yl)phenethyl)cyclohexyl)ethyl)benzimidamide] showed an IC50 (NCI H69 cells) of 1.46 µM, an MIC (S. aureus ATCC 27660) of 8 µg/mL (≈ 19.8 µM) and an MIC (S. aureus ATCC 43300) of 8 µg/mL (≈ 19.8 µM).

`N=C(N)c1ccc(CC[C@@H]2CCC[C@@H](CCc3ccc(C(=N)N)cc3)C2)cc1` [Compound 4, 4,4′-(2,2′-((1R,3R)-cyclohexane-1,3-diyl)bis(ethane-2,1-diyl))dibenzimidamide] was tested, and the IC50 (NCI H69 cells) was 0.75 µM.
